# In PMC4490394 (Scientific Reports, 2015):
# Several values for one entry are separate records, joined by “and”; a condition that tells them apart may be missing. Identical values can stand only once.
# Key:
# [1] = Quantitative whole-body autoradiography (QWBA); assay type: in vivo; conditions: rat, compound and its metabolites, data not shown
# AR(T877A) = molecular target: T1, AR(T877A) (Homo sapiens, UniProt P10275, T878A)
# T1 sequence (P10275 1-920 T878A): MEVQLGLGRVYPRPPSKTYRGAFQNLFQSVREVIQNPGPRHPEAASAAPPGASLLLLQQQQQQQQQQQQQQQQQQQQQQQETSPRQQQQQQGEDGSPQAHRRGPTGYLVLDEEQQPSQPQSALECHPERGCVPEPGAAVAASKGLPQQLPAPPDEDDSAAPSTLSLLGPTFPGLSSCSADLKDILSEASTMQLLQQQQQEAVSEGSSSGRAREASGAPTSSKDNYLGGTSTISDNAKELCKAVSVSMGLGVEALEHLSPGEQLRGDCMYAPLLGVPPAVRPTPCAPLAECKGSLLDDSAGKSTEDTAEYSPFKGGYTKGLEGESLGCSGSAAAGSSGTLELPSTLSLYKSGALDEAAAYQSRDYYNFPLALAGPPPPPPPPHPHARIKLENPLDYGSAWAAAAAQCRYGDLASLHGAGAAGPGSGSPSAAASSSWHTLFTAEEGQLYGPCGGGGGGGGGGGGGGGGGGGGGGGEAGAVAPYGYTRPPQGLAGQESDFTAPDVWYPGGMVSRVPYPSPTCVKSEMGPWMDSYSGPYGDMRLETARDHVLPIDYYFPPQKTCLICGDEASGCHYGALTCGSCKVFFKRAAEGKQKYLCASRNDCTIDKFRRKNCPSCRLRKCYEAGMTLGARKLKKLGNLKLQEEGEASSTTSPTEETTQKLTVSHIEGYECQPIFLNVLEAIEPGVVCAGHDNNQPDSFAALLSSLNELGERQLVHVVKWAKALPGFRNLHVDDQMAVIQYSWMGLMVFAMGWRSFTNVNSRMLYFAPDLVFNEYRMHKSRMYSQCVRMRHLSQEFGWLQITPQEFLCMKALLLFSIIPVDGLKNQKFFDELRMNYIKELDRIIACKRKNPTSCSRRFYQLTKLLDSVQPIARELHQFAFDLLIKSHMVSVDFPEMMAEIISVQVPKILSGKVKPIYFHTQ
# Description: For one well in a 96-well plate, 190 ng of reporter construct DNA and 10 ng of receptor construct DNA were diluted in Opti-MEM® (Gibco). […] Luciferase activity was measured as described above.
# testosterone = conditions: ODM-201-treated patients ref 28; cited from earlier work
# [2] = Body weight of mice bearing subcutaneous VCaP xenograft tumors; assay type: in vivo, castrated nude mice; conditions: for Change in body weight (%) d 3 / Change in body weight (%) d 9 / Change in body weight (%) d 16 / Change in body weight (%) d 23 / Change in body weight (%) d 30 / Change in body weight (%) d 37: individual animals, vs BW before treatment, 50 mg/kg
# Description: BALB/c nude male mice (7 weeks old from Charles River, Germany) were subcutaneously injected with 2 million VCaP cells in 100 μL of RPMI-1640 medium and Matrigel (BD) (1:1). Tumor growth was monitored twice weekly by caliper measurements. The volume of the tumor was calculated according to the formula W^2 × L/2 (mm^3), where W is the shorter and L the longer diameter of the tumor. When the average tumor volume reached ~200 mm^3, mice were castrated or SHAM-operated under Avertin anesthesia. […] For all in vivo studies, Macrocol® (Merck) + propylene glycol +5% glucose (50:30:20, v/v/v) was used as a vehicle.
# serum testosterone = experiment: Serum testosterone in intact nude mice bearing orthotopic VCaP tumors; assay type: in vivo; conditions: 50 mg/kg bid oral, 3 weeks
# Description: One million VCaP cells in 20 μL of RPMI-1640 medium were orthotopically injected into the dorsal prostate lobes of athymic nude male mice (7 weeks old from Harlan Winkelman, France). Tumor growth was followed by measuring serum PSA (ProStatus™ PSA EQM Kits, Wallac, Finland). […] At autopsy, blood samples were collected by heart puncture, clotted overnight at +4 °C, and centrifuged. For serum testosterone determination, 25-μL aliquots were extracted twice with 2 mL of diethyl ether and evaporated under nitrogen to dryness. The residues were reconstituted in PBS and measured using a standard radioimmunoassay as described previously.
smiles,measurement,setting,value
CC(O)c1cc(C(=O)N[C@@H](C)Cn2ccc(-c3ccc(C#N)c(Cl)c3)n2)[nH]n1 (some centres unmarked) [ODM-201],access into the brain (QWBA),[1],very low access
same,functional activity (agonist/antagonist) on AR(T877A),AR(T877A),full antagonists
same,serum testosterone levels in treated patients,testosterone,maintained at castrate levels
same,body weights during the treatment,"[2]; 50 mg/kg twice daily oral, 37 days",did not decrease significantly
same,Change in body weight (%) d 3,[2]; ODM-201 50 mg/kg bid oral,-0.4% and 0.0% and -2.8% and -1.9% and -1.3% and -4.9% and -2.9%
same,Change in body weight (%) d 9,[2]; ODM-201 50 mg/kg bid oral,-2.1% and -2.5% and -9.8% and -0.9% and -0.5% and -4.5% and -6.9% and -1.9%
same,Change in body weight (%) d 16,[2]; ODM-201 50 mg/kg bid oral,1.7% and -4.9% and 5.6% and 3.3% and 0.4% and -4.5% and -1.0%
same,Change in body weight (%) d 23,[2]; ODM-201 50 mg/kg bid oral,-1.7% and -6.5% and -2.8% and 0.5% and -5.4% and -11.4% and -7.2%
same,Change in body weight (%) d 30,[2]; ODM-201 50 mg/kg bid oral,-1.3% and 0.8% and -6.1% and -3.8% and 3.8% and -3.6% and -1.6% and -3.4%
same,Change in body weight (%) d 37,[2]; ODM-201 50 mg/kg bid oral,0.4% and -6.1% and -0.5% and -6.7% and -1.2% and -6.3%
same,Change in body weight (%) d 3,[2]; ODM-201 50 mg/kg qd oral,-2.5% (2×) and -1.3% and -2.0% and -2.9% and -0.5% and -2.3% and -3.8% and -4.7% and 9.0%
same,Change in body weight (%) d 9,[2]; ODM-201 50 mg/kg qd oral,2.2% and -1.7% and 3.5% and 6.9% and -4.9% and 3.9% and 1.8% and -0.8% and -7.7% and 7.5%
same,Change in body weight (%) d 16,[2]; ODM-201 50 mg/kg qd oral,-1.3% and 3.0% and 14.7% and 2.5% and -5.7% and 6.9% and 0.5% and 3.8% and 1.3% and 9.5%
same,Change in body weight (%) d 23,[2]; ODM-201 50 mg/kg qd oral,6.0% and -8.2% and 4.4% and -4.9% and -1.3% and -0.5% and 0.9% and -0.4%
same,Change in body weight (%) d 30,[2]; ODM-201 50 mg/kg qd oral,1.5% and -3.9% and 2.5% and 8.3% and -4.1% and 2.0% and 1.8% and 0.0% and -0.4%
same,Change in body weight (%) d 37,[2]; ODM-201 50 mg/kg qd oral,5.0% and -6.5% and 1.5% and 6.9% and -7.8% and 2.5% and 1.8% and -0.8% and -4.6%
same,effect on serum testosterone levels,serum testosterone,did not affect
